From patent US9018258B2, “Substituted 1-benzylcycloalkylcarboxylic acids and the use thereof” (Bayer Intellectual Property GmbH, priority 2010, dated 2015)

Key:
Type in all cases: cell-based
[1] = molecular target: T1, GAL4-PPARα (Homo sapiens, UniProt Q07869); test: Cellular PPAR transactivation assay, GAL4-PPARα chimera in CHO-K1 cells; details: for Emax: CHO-K1, maximum effect relative to reference compound (Example 73 of EP 1 452 521-A1 = 100%), read-out: PPARα efficacy; for EC50: CHO-K1 cells, luciferase reporter, 6 h stimulation
T1 construct: expressed in transfected cells
T1 sequence (Q07869 167-468): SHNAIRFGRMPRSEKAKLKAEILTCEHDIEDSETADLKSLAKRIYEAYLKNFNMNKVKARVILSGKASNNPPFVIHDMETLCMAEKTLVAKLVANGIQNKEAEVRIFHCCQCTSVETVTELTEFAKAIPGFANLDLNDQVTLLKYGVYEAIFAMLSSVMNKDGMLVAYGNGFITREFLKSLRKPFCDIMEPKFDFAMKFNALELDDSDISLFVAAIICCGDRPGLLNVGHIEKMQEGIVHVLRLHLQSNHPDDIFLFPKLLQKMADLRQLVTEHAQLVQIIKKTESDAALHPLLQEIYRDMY
Excerpt: (§1) A cellular assay is used to test for potentially activating properties of the compounds according to the invention with respect to the three human isoforms of the peroxisome proliferator-activated receptors (PPARα, PPARγ and PPARδ).
(§2) Since mammalian cells contain different endogenous nuclear receptors which may complicate an unambiguous interpretation of the results, an established chimera system is used in which the respective ligand binding domain of the human PPAR isoforms is fused to the DNA binding domain of the yeast transcription factor GAL4. The resulting GAL4-PPARα, γ and δ chimeras are co-transfected and stably expressed in CHO cells having a reporter construct.
(§3) The GAL4-PPAR expression constructs contain the ligand binding domain of PPARα (amino acids 167-468), PPARγ (amino acids 203-506) and PPARδ (amino acids 138-442) which are PCR-amplified and cloned into the vector pcDNA3.1. The respective expression vectors already contain the GAL4 DNA binding domain (amino acids 1-147) of the vector pFC2-dbd (Stratagene). The reporter construct, which contains five copies of the GAL4 binding site upstream of a thymidine kinase promoter, expresses firefly luciferase (Photinus pyralis) following activation and binding of GAL4-PPARα, γ or δ.
(§4) The day before the test, CHO-K1 cells (chinese hamster ovary; ATCC CCL-61) each stably expressing one of the above-described GAL4-PPAR chimeras and the luciferase reporter gene construct are sown in medium [Optimem (GIBCO) with 2% activated carbon-purified foetal calf serum (Hyclone), 1.35 mM sodium pyruvate (GIBCO) and 0.2% sodium bicarbonate (GIBCO)] in a density of 1×10^3 cells in 96-well microtitre plates (Greiner) and kept in a cell incubator (96% atmospheric humidity, 5% v/v CO2, 37° C.). On the test day, the substances to be tested are taken up in the medium mentioned above, but without addition of calf serum, and added in various concentrations to the cells. After a stimulation period of 6 h, the luciferase activity is measured using a video camera. The relative light units measured give, as a function of the substance concentration, a sigmoidal stimulation curve. The EC50 values are calculated using the computer programme GraphPad PRISM (Version 3.02). The maximum effect of a test substance in the respective PPAR assay is determined as efficacy in percent in comparison to an appropriate reference compound whose maximum effect is defined as 100%.
(§5) The reference compound selected here was the compound 2-(3-{[(2-chloro-4-propoxybenzoyl)-amino]methyl}-4-ethoxybenzyl)tetrahydrofuran-2-carboxylic acid [Example 73 of EP 1 452 521-A1] which is described in the prior art as a potent pan-PPAR agonist.

[2] = molecular target: T2, sGC (Rattus norvegicus, UniProt P20595); test: Action at a recombinant guanylate cyclase reporter cell line (CHO reporter cell); details: CHO reporter cell in vitro
T2 construct: expressed in transfected cells; host or cells: CHO reporter cell
Description: The cellular action of the compounds according to the invention is determined at a recombinant guanylate cyclase reporter cell line, as described in F. Wunder et al., Anal. Biochem. 339, 104-112 (2005).

[3] = molecular target: T3, GAL4-PPARδ (Homo sapiens, UniProt Q03181); test: Cellular PPAR transactivation assay, GAL4-PPARδ chimera in CHO-K1 cells; details: for Emax: CHO-K1, maximum effect relative to reference compound (Example 73 of EP 1 452 521-A1 = 100%), read-out: PPARδ efficacy; for EC50: CHO-K1 cells, luciferase reporter, 6 h stimulation
T3 construct: PPARδ (amino acids 138-442); expressed in transfected cells
T3 sequence (Q03181 138-441 limits assumed): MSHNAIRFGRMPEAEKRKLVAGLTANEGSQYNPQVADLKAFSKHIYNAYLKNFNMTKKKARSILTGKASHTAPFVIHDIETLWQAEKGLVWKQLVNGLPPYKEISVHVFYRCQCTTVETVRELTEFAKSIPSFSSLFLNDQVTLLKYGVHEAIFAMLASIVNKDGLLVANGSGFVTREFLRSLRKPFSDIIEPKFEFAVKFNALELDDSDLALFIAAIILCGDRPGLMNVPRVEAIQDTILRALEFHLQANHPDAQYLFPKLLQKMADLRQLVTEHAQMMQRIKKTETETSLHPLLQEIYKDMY
Excerpt: as §1, §2, §3, §4, §5

[4] = molecular target: T4, GAL4-PPARγ (Homo sapiens, UniProt P37231); test: Cellular PPAR transactivation assay, GAL4-PPARγ chimera in CHO-K1 cells; details: for Emax: CHO-K1, maximum effect relative to reference compound (Example 73 of EP 1 452 521-A1 = 100%), read-out: PPARγ efficacy; for EC50: CHO-K1 cells, luciferase reporter, 6 h stimulation
T4 construct: PPARγ (amino acids 203-506); expressed in transfected cells
T4 sequence (P37231 203-505 limits assumed): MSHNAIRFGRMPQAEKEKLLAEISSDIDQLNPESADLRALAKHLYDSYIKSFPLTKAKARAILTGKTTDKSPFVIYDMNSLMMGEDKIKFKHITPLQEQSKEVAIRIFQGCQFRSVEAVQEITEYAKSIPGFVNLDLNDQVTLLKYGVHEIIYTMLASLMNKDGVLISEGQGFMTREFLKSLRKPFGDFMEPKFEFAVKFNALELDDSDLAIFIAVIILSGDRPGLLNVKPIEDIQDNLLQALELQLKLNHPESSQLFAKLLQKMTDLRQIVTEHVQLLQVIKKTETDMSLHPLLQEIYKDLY
Excerpt: as §1, §2, §3, §4, §5

T2 sequence (P19686 whole entry partner): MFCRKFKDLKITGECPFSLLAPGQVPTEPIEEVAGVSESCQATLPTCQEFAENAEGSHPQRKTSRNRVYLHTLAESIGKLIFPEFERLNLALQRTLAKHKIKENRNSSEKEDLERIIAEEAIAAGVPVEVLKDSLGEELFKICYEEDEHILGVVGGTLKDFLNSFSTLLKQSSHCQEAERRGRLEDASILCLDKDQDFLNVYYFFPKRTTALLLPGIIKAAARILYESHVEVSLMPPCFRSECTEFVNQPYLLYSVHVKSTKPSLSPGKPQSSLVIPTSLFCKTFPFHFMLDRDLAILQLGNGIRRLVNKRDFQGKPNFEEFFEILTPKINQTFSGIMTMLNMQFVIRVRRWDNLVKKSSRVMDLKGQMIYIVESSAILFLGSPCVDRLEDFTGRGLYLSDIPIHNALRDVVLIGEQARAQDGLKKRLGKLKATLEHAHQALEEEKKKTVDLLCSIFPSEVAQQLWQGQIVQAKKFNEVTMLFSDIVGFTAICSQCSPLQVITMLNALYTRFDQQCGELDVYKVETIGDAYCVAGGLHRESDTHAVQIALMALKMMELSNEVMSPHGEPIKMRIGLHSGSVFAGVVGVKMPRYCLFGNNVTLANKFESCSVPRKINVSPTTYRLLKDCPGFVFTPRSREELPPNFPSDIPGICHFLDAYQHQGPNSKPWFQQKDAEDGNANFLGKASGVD
T2 sequence (P20595 whole entry): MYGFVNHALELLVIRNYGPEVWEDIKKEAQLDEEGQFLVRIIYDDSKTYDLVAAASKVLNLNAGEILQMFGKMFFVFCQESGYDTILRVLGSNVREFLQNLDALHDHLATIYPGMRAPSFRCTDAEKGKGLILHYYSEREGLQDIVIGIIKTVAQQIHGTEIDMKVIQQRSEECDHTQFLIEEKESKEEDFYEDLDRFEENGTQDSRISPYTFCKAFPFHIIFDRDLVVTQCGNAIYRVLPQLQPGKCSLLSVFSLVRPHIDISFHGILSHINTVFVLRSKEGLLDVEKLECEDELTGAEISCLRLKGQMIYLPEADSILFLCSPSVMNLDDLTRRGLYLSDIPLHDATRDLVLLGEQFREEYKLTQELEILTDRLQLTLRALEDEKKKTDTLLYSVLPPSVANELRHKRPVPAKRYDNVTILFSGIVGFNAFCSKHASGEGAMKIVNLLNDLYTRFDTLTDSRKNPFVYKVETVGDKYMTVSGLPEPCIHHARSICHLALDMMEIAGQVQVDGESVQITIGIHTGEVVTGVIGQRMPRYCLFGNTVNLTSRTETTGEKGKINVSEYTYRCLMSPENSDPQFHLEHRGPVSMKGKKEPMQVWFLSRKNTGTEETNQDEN

| SMILES | Emax [1] | EC50 [1] | MEC (minimum effective concentration), sGC-activating activity in the CHO reporter cell [2] | Emax [3] | EC50 [3] | Emax [4] | EC50 [4] | Effect in the cellular PPAR transactivation test (in words) ([1]; statement covers the PPARα, PPARγ and PPARδ test) |
| --- | --- | --- | --- | --- | --- | --- | --- | --- |
| C[C@H]([C@H](C(=O)Nc1cc(CC2(C(=O)O)CC2(F)F)ccc1Cl)c1ccc(Cl)cc1)C(F)(F)F (single isomer, unassigned; (+)) [Example 71] | 0% | > 10 µM | 3 nM | 0% | > 10 µM | 20% | 0.46 µM | – |
| C[C@H]([C@H](C(=O)Nc1cc(CC2(C(=O)O)CC2)ccc1F)c1ccc(C2CC2)cc1)C(F)(F)F [Example 40, 1-(3-{[(2S,3R)-2-(4-cyclopropylphenyl)-4,4,4-trifluoro-3-methylbutanoyl]amino}-4-fluorobenzyl)cyclopropanecarboxylic acid] | 0% | > 10 µM | 0.3 nM | 0% | > 10 µM | 10% | 0.12 µM | – |
| Cc1ccc(CC2(C(=O)O)CC2)cc1NC(=O)[C@H](c1ccc(Cl)cc1)[C@@H](C)C(F)(F)F [Example 33, 1-(3-{[(2S,3R)-2-(4-chlorophenyl)-4,4,4-trifluoro-3-methylbutanoyl]amino}-4-methylbenzyl)-cyclopropanecarboxylic acid] | 0% | > 10 µM | 3 nM | 0% | > 10 µM | 10% | 4 µM | – |
| CCCOc1ccc(C(=O)NCc2cc(CC3(C(=O)O)CCCO3)ccc2OCC)c(Cl)c1 (stereo not shown) [Example 73 of EP 1 452 521-A1, 2-(3-{[(2-chloro-4-propoxybenzoyl)amino]-methyl}-4-ethoxybenzyl)tetrahydrofuran-2-carboxylic acid, reference compound] | 100% | 0.0053 µM | – | 100% | 0.0084 µM | 100% | 0.0089 µM | – |
| COc1cc([C@@H](C(=O)Nc2cc(CC3(C(=O)O)CC3)ccc2F)[C@@H](C)C(F)(F)F)ccc1Cl [Example 42, 1-(3-{[(2S,3R)-2-(4-chloro-3-methoxyphenyl)-4,4,4-trifluoro-3-methylbutanoyl]amino}-4-fluorobenzyl)cyclopropanecarboxylic acid] | 0% | > 10 µM | 3 nM | 0% | > 10 µM | 10% | 2 µM | – |
| C[C@H]([C@H](C(=O)Nc1cc(CC2(C(=O)O)CC2)ccc1F)c1ccc(C(C)(F)F)cc1)C(F)(F)F [Example 38, 1-[3-({(2S,3R)-2-[4-(1,1-difluoroethyl)phenyl]-4,4,4-trifluoro-3-methylbutanoyl}amino)-4-fluorobenzyl]cyclopropanecarboxylic acid] | 0% | > 10 µM | 0.3 nM | 0% | > 10 µM | 0% | > 10 µM | – |
| C[C@H]([C@H](C(=O)Nc1cc(CC2(C(=O)O)CC2)ccc1Cl)c1ccc(C(C)(C)C(F)(F)F)cc1)C(F)(F)F [Example 44, 1-[4-chloro-3-({(2S,3R)-4,4,4-trifluoro-3-methyl-2-[4-(1,1,1-trifluoro-2-methylpropan-2-yl)phenyl]-butanoyl}amino)benzyl]cyclopropanecarboxylic acid] | 0% | > 10 µM | 0.3 nM | 0% | > 10 µM | 0% | > 10 µM | – |
| CCC(c1ccc(Cl)c(NC(=O)[C@H](c2ccc(Cl)cc2)[C@@H](C)C(F)(F)F)c1)C1(C(=O)O)CC1 (stereo partly drawn) [Example 98, 1-[1-(4-Chloro-3-{[(2S,3R)-2-(4-chlorophenyl)-4,4,4-trifluoro-3-methylbutanoyl]amino}phenyl)-propyl]cyclopropanecarboxylic acid] | – | – | 0.3 nM | – | – | – | – | – |
| CCc1ccc([C@@H](C(=O)Nc2cc(CC3(C(=O)O)CC3)ccc2F)[C@@H](C)C(F)(F)F)cc1 [Example 25, (+)-1-(3-{[(2S,3R)-2-(4-ethylphenyl)-4,4,4-tri-fluoro-3-methylbutanoyl]amino}-4-fluorobenzyl)-cyclopropanecarboxylic acid] | – | – | 0.3 nM | – | – | – | – | – |
| COc1ccc(CC2(C(=O)O)CC2)cc1CNC(=O)c1ccc(Cl)cc1Cl [Example 11 of EP 1 452 521-A1, 1-(3-{[(2,4-dichlorobenzoyl)amino]methyl}-4-methoxybenzyl)cyclopropanecarboxylic acid, reference compound] | 0% | > 1 µM | – | 10% | > 1 µM | 0% | > 1 µM | virtually ineffective |
| C[C@H]([C@H](C(=O)Nc1cccc(CC2(C(=O)O)CC2)c1Cl)c1ccc(Cl)cc1)C(F)(F)F [Example 27, (+)-1-(2-chloro-3-{[(2S,3R)-2-(4-chlorophenyl)-4,4,4-trifluoro-3-methylbutanoyl]amino}benzyl)-cyclopropanecarboxylic acid] | – | – | 100 nM | – | – | – | – | – |
